Data reported in publication PMC4736448, “Optical Control of Insulin Secretion Using an Incretin Switch” (Angewandte Chemie (International Ed. in English), 2015).
Starred links: 1 amine or outer side, 2 acyl side, 3 side chain; linkers in the order of their positions; H or OH if unused. Non-standard residues stand in square brackets, D forms with d. Residues, ends and D or L forms follow the SMILES beside them. X1 = O=C(Cc1cccc(/N=N/c2cccc(CN[*:1])c2)c1)[*:2]; X2 = O=C(Cc1cccc(/N=N\c2cccc(CN[*:1])c2)c1)[*:2]

Columns and labels:
[1] = system: pancreatic beta cells within intact islets; experiment: Multicellular Ca2+ imaging in intact islets of Langerhans; format: cell-based, mouse; conditions: for effect on cytosolic Ca2+ levels / multicellular Ca2+ spiking in islets / Ca2+ rises / beta-cell activity at non-permissive (low) glucose: 150 nM; for effect on cytosolic Ca2+ levels / multicellular Ca2+ spiking in islets: permissive (>8 mM) glucose, blue 440 nm (trans), UV 350 nm (cis); for Ca2+ rises / beta-cell activity at non-permissive (low) glucose: G3, 3 mM glucose, n=5 recordings; for effect of GLP-1R blockade on trans-LirAzo-stimulated Ca2+ oscillations: Exendin 9-39 150 nM, n=9 recordings
Description: (§1) All procedures involving primary tissue were regulated by the Home Office according to the Animals (Scientific Procedures) Act 1986 of the United Kingdom […]
(§2) Isolation of rodent islets
(§3) Islets were isolated from 8-12 week old female C57BL6 mice, as previously detailed,[2] and maintained in Roswell Park Memorial Institute (RPMI) medium supplemented with 10% foetal calf serum, 100 U/mL penicillin and 100 µg/mL […]
Multicellular Ca2+ imaging was performed using fluo2 and a Nipkow spinning disk confocal microscope, as detailed.[3] Briefly, pulsed λ = 491 nm light was delivered through a 10/0.3 NA objective (EC Plan-Neofluar, Zeiss) using a solid-state laser (Cobalt), and emitted signals captured from λ = 500-550 nm using a Hammamatsu ImageEM EM-CCD camera. Photoswitching was performed using either a λ = 440 nm laser or the epifluorescent port of the microscope configured with a λ = 350 ± 20 nm band-pass filter. Throughout, HEPES-bicarbonate buffer was used, containing in mM: 120 NaCl, 4.8 KCl, 24 NaHCO3, 0.5 Na2HPO4, 5 HEPES, 2.5 CaCl2 and 1.2 MgCl2. Compounds and D-glucose were added as […]

MIN6 beta cells [2] = experiment: cAMP responses in MIN6 beta cells (Cisbio HTRF cAMP assay); format: cell-based; conditions: permissive (>8 mM) glucose, n=7 repeats
Description: as §1, §2, §3
Chinese Hamster Ovary (CHO) cells stably expressing the GLP-1R were cultured in Dulbecco's Modified Eagle's Medium (DMEM) supplemented with 10% FBS, 1 x non-essential amino acids, 25 mM HEPES, 100 U/mL penicillin and 100 µg/mL streptomycin. […]
(§4) (live) and 2.5 µM of propidium iodide (dead), and […]/emission detected at λ = 491/525 nm and λ = 561/620 nm, respectively. The area of dead:live cells was calculated as a ratio. Apoptosis was assessed using a DeadEnd Fluorimetric TUNEL System staining kit (Promega).[3] The apoptotic cell mass was calculated as a fraction area versus the total cell mass. […]
(§5) mixture (33 mM glucose + 0.5 mM palmitate) in the presence or absence of compound. Apoptosis was subsequently determined using specific fluorescent immunostaining and a rabbit polyclonal antibody against cleaved caspase 3 (Cell Signaling Technology # 9661; 1:400), before analysis as above. […]
HitHunter No Wash PLUS assay. […] Absorbance/emission were detected at λ = 488/525 nm. […]

[3] = cis-trans photoisomerization by UV/Vis spectroscopy; format: physicochemical; conditions: UV 330 nm (trans→cis), blue 440 nm (cis→trans), listed as names the isomer
From the text: Switching kinetics in response to blue (λ=440 nm; cis→trans) and UV (λ=330 nm; trans→cis) light were robust and fast, with no evidence of degradation or bleaching (Figure 2 b; see Figure S2 and Table S2 in the Supporting Information).

MIN6 beta cells [4] = experiment: Apoptosis induced by glucolipotoxicity in MIN6 beta cells (cleaved caspase 3); format: cell-based; conditions: 500 nM, 24 h, 33 mM glucose + 0.5 mM palmitate, n=8 repeats
Description: MIN6 cells (a kind gift from Dr Jun-ichi Miyazaki, Osaka University) were cultured in DMEM supplemented with 15% FBS, 10 mM glutamine, 20 mM HEPES, 0.0005% β-mercaptoethanol 100 U/mL penicillin and 100 µg/mL […]
Apoptosis was assessed using a DeadEnd Fluorimetric
TUNEL System staining kit (Promega).[3] The apoptotic cell mass was calculated as a fraction area versus the total cell mass. To investigate the pro-survival […]
as §5

MIN6 beta cells [5] = format: cell-based; conditions: for signaling pathways engaged (Ca2+ rises with pathway antagonists): MIN6 beta cells, 150 nM, >8 mM glucose, antagonists of Epac2, L-type Ca2+ channels, KATP, IP3R, PKA, n=8 repeats
Description: (§6) All procedures involving primary tissue were regulated by the Home Office […]
MIN6 cells (a kind gift from Dr Jun-ichi Miyazaki, Osaka University) […]
HEPES, 0.0005% β-mercaptoethanol 100 U/mL penicillin and 100 µg/mL […]
Multicellular Ca2+ imaging was performed using fluo2 and a Nipkow spinning disk confocal microscope, as detailed.[3] […]
through a 10/0.3 NA objective (EC Plan-Neofluar, Zeiss) using a solid-state laser (Cobalt), and emitted signals captured from λ = 500-550 nm using a Hammamatsu ImageEM EM-CCD camera. Photoswitching was performed using either a λ = 440 nm laser or the epifluorescent port of the microscope configured with a λ = 350 ± 20 nm band-pass filter. Throughout, HEPES-bicarbonate buffer was used, containing in mM: 120 NaCl, 4.8 KCl, 24 NaHCO3, 0.5 Na2HPO4, 5 […]
HEPES, 2.5 CaCl2 and 1.2 MgCl2. […]
High-throughput (HTS) Ca2+ assays were performed using the DiscoverX
HitHunter No Wash PLUS assay. Treatments were automatically delivered at 37 °C using a BMG Labtech NOVOstar platereader and fluorescence intensity read […]
over 30-45 s. […] For all […]
transilluminator to induce cis-isomerization, or kept in the dark to maintain the […]
trans-isomer. […]
(§7) Non-multifactorial comparisons were made using Student’s t-test. Multifactorial comparisons were made using either one- or two-way ANOVA, or the Kruskal-Wallis test, followed by pairwise comparisons using Bonferonni’s or Dunn’s tests.
(§8) Log-transformed concentration-response curves were fitted using non-linear regression and the Hill equation. All analyses were conducted using Graphpad Prism (Graphpad Software) and IgorPro, and results deemed significant at […]

mouse islets = experiment: Glucose-stimulated insulin secretion from isolated islets; format: cell-based; conditions: 150 nM, 8 mM glucose, n=12 animals; for augmentation of glucose-stimulated insulin secretion: mouse islets, 30 min, dark (trans) or 350 nm light (cis)
Description: as §6, §2, §3
transilluminator to induce cis-isomerization, or kept in the dark to maintain the trans-isomer. In addition, for HTS Ca2+ assays, λ = 340 ± 10 nm or λ = […] was delivered between acquisitions using the platereader’s inbuilt […]
Batches of six to eight islets were incubated for 30 min in Krebs-HEPES-bicarbonate solution containing in mM: 130 NaCl, 3.6 KCl, 1.5 CaCl2, 0.5 MgSO4, 0.5 NaH2PO4, 2 NaHCO3, 10 HEPES and 0.1% (wt/vol) bovine serum albumin, pH 7.4.[2] Treatments were applied as indicated and photoswitching performed at λ = 340 ± 10 nm using a BMG Fluostar Optima platereader, as above. Insulin concentrations in the supernatant were measured using a Cisbio HTRF assay according to the low-range (sensitive) protocol.
as §7, §8

islets = experiment: Cytotoxicity (dead:live and TUNEL) in islets; format: cell-based, mouse; conditions: 11 mM glucose-only; n=8-9 islets
Description: as §1, §2, §3
Cytotoxicity and apoptosis assays
as §4

CC[C@H](C)[C@H](NC(=O)[C@H](Cc1ccccc1)NC(=O)[C@H](CCC(=O)O)NC(=O)[C@H](CCCCN)NC(=O)[C@H](C)NC(=O)[C@H](C)NC(=O)Cc1cccc(/N=N\c2cccc(CNC(=O)[C@H](CCC(=O)O)NC(=O)[C@H](CC(C)C)NC(=O)[C@H](Cc3ccc(O)cc3)NC(=O)[C@H](CO)NC(=O)[C@H](CO)NC(=O)[C@@H](NC(=O)[C@H](CC(=O)O)NC(=O)[C@H](CO)NC(=O)[C@@H](NC(=O)[C@H](Cc3ccccc3)NC(=O)[C@@H](NC(=O)CNC(=O)[C@H](CCC(=O)O)NC(=O)[C@H](C)NC(=O)[C@@H](N)Cc3c[nH]cn3)[C@@H](C)O)[C@@H](C)O)C(C)C)c2)c1)C(=O)N[C@@H](C)C(=O)N[C@@H](Cc1c[nH]c2ccccc12)C(=O)N[C@@H](CC(C)C)C(=O)N[C@H](C(=O)N[C@@H](CCCNC(=N)N)C(=O)NCC(=O)N[C@@H](CCCNC(=N)N)C(=O)NCC(=O)O)C(C)C [cis‐LirAzo] (H-HAEGTFTSDVSSYLE[X2]AAKEFIAWLVRGRG-OH)
effect on cytosolic Ca2+ levels / multicellular Ca2+ spiking in islets [1]: reduced
cAMP concentration response in MIN6 beta cells, cis versus trans (MIN6 beta cells [2]): significantly left‐shifted, with a higher maximal response
photoswitching kinetics τ1 [3]: 51.0 ± 2.4 s
photoswitching kinetics τ2 [3]: 11.1 ± 4.0 min
protection from apoptosis induced by glucolipotoxic insult (MIN6 beta cells [4]): Lira and trans‐LirAzo are more protective than cis‐LirAzo
Ca2+ fluxes versus control injection (high glucose alone) (MIN6 beta cells [5]; Figure S6): only just above those observed following control injection
signaling pathways engaged (Ca2+ rises with pathway antagonists) (MIN6 beta cells [5]): signaled via the cAMP binding partners Epac2 and PKA, as well as IP3
potentiation of glucose-stimulated insulin secretion (versus G8) (mouse islets): potentiate
augmentation of glucose-stimulated insulin secretion (mouse islets): ca. 2.5 fold

CC[C@H](C)[C@H](NC(=O)[C@H](Cc1ccccc1)NC(=O)[C@H](CCC(=O)O)NC(=O)[C@H](CCCCN)NC(=O)[C@H](C)NC(=O)[C@H](C)NC(=O)Cc1cccc(/N=N/c2cccc(CNC(=O)[C@H](CCC(=O)O)NC(=O)[C@H](CC(C)C)NC(=O)[C@H](Cc3ccc(O)cc3)NC(=O)[C@H](CO)NC(=O)[C@H](CO)NC(=O)[C@@H](NC(=O)[C@H](CC(=O)O)NC(=O)[C@H](CO)NC(=O)[C@@H](NC(=O)[C@H](Cc3ccccc3)NC(=O)[C@@H](NC(=O)CNC(=O)[C@H](CCC(=O)O)NC(=O)[C@H](C)NC(=O)[C@@H](N)Cc3c[nH]cn3)[C@@H](C)O)[C@@H](C)O)C(C)C)c2)c1)C(=O)N[C@@H](C)C(=O)N[C@@H](Cc1c[nH]c2ccccc12)C(=O)N[C@@H](CC(C)C)C(=O)N[C@H](C(=O)N[C@@H](CCCNC(=N)N)C(=O)NCC(=O)N[C@@H](CCCNC(=N)N)C(=O)NCC(=O)O)C(C)C [trans‐LirAzo] (H-HAEGTFTSDVSSYLE[X1]AAKEFIAWLVRGRG-OH)
effect on cytosolic Ca2+ levels / multicellular Ca2+ spiking in islets [1]: induced increases in the baseline amplitude and frequency of multicellular Ca^2+ spiking
Ca2+ rises / beta-cell activity at non-permissive (low) glucose [1]: unable to stimulate changes in beta‐cell activity
Ca2+ rises / beta-cell activity at non-permissive (low) glucose ([1]; listed as trans-LirAzo): unable
islet cell apoptosis under normal conditions (TUNEL) (islets): do not induce
photoswitching kinetics τ1 [3]: 32.3 ± 1.6 s
photoswitching kinetics τ2 [3]: 7.5 ± 3.4 min
protection from apoptosis induced by glucolipotoxic insult (MIN6 beta cells [4]): more protective than cis‐LirAzo
protection from apoptosis induced by glucolipotoxic insult (MIN6 beta cells [4]; listed as trans isomer of LirAzo): significant protection
signaling pathways engaged (Ca2+ rises with pathway antagonists) (MIN6 beta cells [5]): signaled via the cAMP binding partners Epac2 and PKA, as well as IP3
augmentation of glucose-stimulated insulin secretion (mouse islets): ca. 1.4 fold

exendin 9–39 [reference compound]
effect of GLP-1R blockade on trans-LirAzo-stimulated Ca2+ oscillations [1]: abolished
effect of GLP-1R blockade on trans-LirAzo-stimulated Ca2+ oscillations ([1]; listed as Exendin 9-39): abolishes
